Measured values: article PMC10877733, “Discovery and Characterization of VU0542270, the First Selective Inhibitor of Vascular Kir6.1/SUR2B KATP Channels” (Molecular Pharmacology, 2024)
Entries after “also recorded” stand apart in the source; their conditions may differ.

Experiments:
[1] = Brain:plasma distribution in rat; assay type: in vivo; settings: male, Sprague Dawley, brain and plasma, IV 0.2 mg/kg, 15 minutes postdose
Procedure: VU0542270 was formulated as a solution in ethanol, PEG400, and saline (1:4:5 v/v, respectively) and administered to male Sprague Dawley rats (n = 1) intravenously at 0.2 mg/kg. At 15 minutes postdose, a blood sample was collected terminally into chilled K2EDTA anticoagulant-fortified tubes and immediately placed on wet ice. The blood sample was then centrifuged (1700 rcf, 5 minutes, 4°C) to obtain a plasma sample. At the same postadministration time point(s), a whole-brain sample was obtained by rapid dissection, rinsing with PBS, and immediate freezing in individual tissue collection boxes (dry ice). All brain and plasma samples were stored at −80°C until analysis by LC-MS/MS. In vivo brain:plasma distribution partition coefficient of VU0542270 was determined from the observed animal brain versus plasma concentrations.
Plasma samples from the in-life phases of the studies were thawed at ambient temperature (benchtop), and then aliquots (20 µL per sample) were transferred to a 96-shallow-well (V-bottom) plate. […]
Prepared samples were injected (10 µL each) onto an AB Sciex triple quad-4500 mass spectrometer system with an Agilent 1290 Infinity Binary Pump and multisampler. […] Quantitation of VU0542270 was performed via AB Sciex Analyst software using the raw analyte:IS peak area ratios. […]

Kir6.2/SUR1 = molecular target: T1, Kir6.2/SUR1 (Homo sapiens, UniProt Q09428); assay: Thallium flux assay of Kir6.2/SUR1 in HEK293 cells; assay type: cell-based
T1 construct: expressed in transfected cells; also transiently transfected HEK293T
T1 sequence (Q09428 whole entry, species assumed): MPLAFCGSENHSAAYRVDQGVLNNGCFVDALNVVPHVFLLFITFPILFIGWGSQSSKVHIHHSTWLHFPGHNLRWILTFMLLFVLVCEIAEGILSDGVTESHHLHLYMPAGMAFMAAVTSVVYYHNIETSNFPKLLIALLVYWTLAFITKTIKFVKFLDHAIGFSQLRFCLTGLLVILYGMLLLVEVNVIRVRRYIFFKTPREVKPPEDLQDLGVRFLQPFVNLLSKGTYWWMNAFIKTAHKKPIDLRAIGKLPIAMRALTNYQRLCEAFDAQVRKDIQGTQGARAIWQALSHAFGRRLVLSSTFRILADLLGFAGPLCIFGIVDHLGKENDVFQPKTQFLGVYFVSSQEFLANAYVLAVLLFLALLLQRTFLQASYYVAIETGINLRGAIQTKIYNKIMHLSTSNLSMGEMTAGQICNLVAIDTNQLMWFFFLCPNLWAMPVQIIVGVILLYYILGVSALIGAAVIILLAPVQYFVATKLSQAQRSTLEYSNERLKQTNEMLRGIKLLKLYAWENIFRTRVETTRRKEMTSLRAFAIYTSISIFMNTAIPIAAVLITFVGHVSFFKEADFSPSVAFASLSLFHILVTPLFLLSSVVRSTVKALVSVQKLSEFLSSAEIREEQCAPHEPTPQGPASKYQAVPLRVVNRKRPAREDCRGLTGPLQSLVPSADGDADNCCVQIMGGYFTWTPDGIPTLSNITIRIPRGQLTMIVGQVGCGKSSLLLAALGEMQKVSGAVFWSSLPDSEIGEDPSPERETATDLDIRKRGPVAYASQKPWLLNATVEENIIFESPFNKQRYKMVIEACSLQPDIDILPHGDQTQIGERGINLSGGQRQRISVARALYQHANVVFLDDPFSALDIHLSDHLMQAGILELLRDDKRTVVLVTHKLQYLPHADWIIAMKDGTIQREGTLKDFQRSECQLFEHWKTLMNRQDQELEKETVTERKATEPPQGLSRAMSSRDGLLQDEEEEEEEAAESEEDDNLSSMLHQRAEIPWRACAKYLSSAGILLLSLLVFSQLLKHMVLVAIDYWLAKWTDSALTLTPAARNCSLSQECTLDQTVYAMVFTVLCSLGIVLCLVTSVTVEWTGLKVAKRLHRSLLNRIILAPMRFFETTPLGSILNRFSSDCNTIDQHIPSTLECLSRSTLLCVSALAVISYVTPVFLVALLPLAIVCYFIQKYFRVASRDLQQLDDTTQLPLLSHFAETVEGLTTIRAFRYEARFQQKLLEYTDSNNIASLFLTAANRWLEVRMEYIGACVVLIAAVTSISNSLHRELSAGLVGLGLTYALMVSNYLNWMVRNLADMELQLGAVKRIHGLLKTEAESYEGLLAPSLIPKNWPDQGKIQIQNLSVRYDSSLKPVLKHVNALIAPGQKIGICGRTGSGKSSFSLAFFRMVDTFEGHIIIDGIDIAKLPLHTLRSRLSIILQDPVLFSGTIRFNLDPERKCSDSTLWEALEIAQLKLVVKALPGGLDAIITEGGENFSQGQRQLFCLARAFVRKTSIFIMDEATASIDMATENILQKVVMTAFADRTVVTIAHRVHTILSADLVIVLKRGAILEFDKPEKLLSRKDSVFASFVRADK
T1 sequence (Q14654 whole entry partner, species assumed): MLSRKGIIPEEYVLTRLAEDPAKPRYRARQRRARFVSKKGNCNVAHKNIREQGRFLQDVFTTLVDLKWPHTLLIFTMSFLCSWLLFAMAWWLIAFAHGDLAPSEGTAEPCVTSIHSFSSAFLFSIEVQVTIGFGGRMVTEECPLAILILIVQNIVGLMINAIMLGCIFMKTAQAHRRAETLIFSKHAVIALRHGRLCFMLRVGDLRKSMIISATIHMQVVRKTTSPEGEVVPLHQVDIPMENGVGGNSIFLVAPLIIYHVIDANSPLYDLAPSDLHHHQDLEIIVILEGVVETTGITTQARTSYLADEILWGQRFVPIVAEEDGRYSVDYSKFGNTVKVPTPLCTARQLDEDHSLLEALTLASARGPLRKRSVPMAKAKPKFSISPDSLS
Procedure: The pcDNA3.1-SUR2B plasmid was generously provided by Dr. Colin Nichols (Washington University). The pcDNA5/TO-Kir6.1 plasmid was synthesized by GenScript. […] For selectivity assays, HEK293T cells were cotransfected with Kir6.x and SURX with Lipofectamine LTX and incubated for 48 hours before thallium flux assays.
Stable T-Rex-HEK293-Kir6.1/SUR2B cells or transiently transfected HEK293T cells were plated in polyamine-coated, clear-bottomed, black-walled 384-well plates and were cultured (37°C/5% CO2) overnight in Dulbecco’s modified Eagle’s medium (Gibco, Carlsbad, CA, 11995-065) containing 10% FBS (2 mM Penicillin-Streptomycin). The following day, cells were washed with assay buffer (i.e., Hanks’ balanced salt solution/20 mM HEPES) and loaded for 1 hour with thallium sensor dye Brilliant Thallium (Ion Bioscience, San Marcos, TX) at room temperature. Dye-loaded cells were washed with assay buffer and transferred to a Panoptic Kinetic Imaging Plate Reader (Wavefront Bioscience, Franklin, TN). Control and test compound treatments were for 4 minutes prior to adding 0.5 mM chloride-free thallium stimulus buffer (Ion Bioscience) to initiate thallium flux.

In the case of `Cc1nc(-c2cccs2)sc1CNC(=O)Nc1cccs1` [VU0542270], the Kp at 0.25 h [1] is reported as 0.11, the “activity toward Kir6.2/SUR1” value (Kir6.2/SUR1; doses up to 30 µM) is reported as “no apparent activity” and the IC50 (Kir6.2/SUR1; thallium flux, Table 1 selectivity profile) is reported as greater than 30 µM. For the same compound, the “Kir6.2/SUR1 IC50, ATP depletion” value (Kir6.2/SUR1; thallium flux, transfected HEK-293 cells, channels activated by metabolic inhibition (ATP depletion) (Fig. 4B)) was “failed to inhibit; also recorded: no fit” and the “Kir6.2/SUR1 IC50, VU0071063 activation” value (Kir6.2/SUR1; thallium flux, transfected HEK-293 cells, channels activated with VU0071063 (Fig. 4A)) was “failed to inhibit; also recorded: no fit”.
